PMC6390583 (BMC rheumatology, 2018)
Where two headings read alike, the source gives them in different places.

Tests used:
[1] = test system: Oncostatin M (OSM) induced STAT3 phosphorylation; assay: Oncostatin M induced STAT3 phosphorylation in TF-1 cells; type: cell-based; conditions: Homo sapiens, JAK 1, N = 2, read-out: Human IC50, OSM pSTAT3
Method: (§1) IL-6 and Oncostatin M (OSM) induced STAT3 phosphorylation was assessed in the human erythroleukemia TF-1 cell line. Erythropoietin-induced STAT5 phosphorylation was assessed in the human UT-7 cell line. IL-2 and IL-15 induced STAT5 phosphorylation was assessed in activated human T-cells. Detection of phosphorylated STATs was accomplished with the SureFire pSTAT5 or pSTAT3 Assay kit (Perkin Elmer, Hopkinton, MA) per standard manufacturer’s protocol, with the exception of an overnight incubation following addition of donor beads before detection on the EnVision (Perkin Elmer, Hopkinton, MA). IFNγ induced STAT1 phosphorylation was assessed in the CD14+ monocyte population in human PBMC by flow cytometry. CD14 BV421 was purchased from BD Biosciences (San Jose, CA). STAT1 PE ([…]) was purchased from ThermoFisher Scientific (Waltham, MA). IL-4 and IL-13 induced STAT6 phosphorylation and IL-31 induced STAT3 phosphorylation were assessed in adult human epithelial keratinocytes (HEKa, ThermoFisher Scientific, Waltham, MA) by flow cytometry. STAT6 PE (pY641) and STAT3 PE (Y705) were purchased from BD Biosciences (San Jose, CA).

[2] = test system: IL-6 induced pSTAT3, CD3+ whole blood; assay: IL-6 signaling in human whole blood, CD3+ T-cell population; type: cell-based; conditions: JAK 1
JAK1 = JAK1 (Homo sapiens, UniProt P23458); assay: HTRF activity assay, recombinant JAK1 catalytic domain; conditions: JAK1 IC50 at varying ATP (0.01-1 mM), Cheng-Prusoff; data not shown
CAMK2A = CAMK2A (Homo sapiens, UniProt Q9UQM7); assay: trFRET binding kinome profiling
Chain of CAMK2A (Q9UQM7 whole entry, species assumed, the tested form may be a part): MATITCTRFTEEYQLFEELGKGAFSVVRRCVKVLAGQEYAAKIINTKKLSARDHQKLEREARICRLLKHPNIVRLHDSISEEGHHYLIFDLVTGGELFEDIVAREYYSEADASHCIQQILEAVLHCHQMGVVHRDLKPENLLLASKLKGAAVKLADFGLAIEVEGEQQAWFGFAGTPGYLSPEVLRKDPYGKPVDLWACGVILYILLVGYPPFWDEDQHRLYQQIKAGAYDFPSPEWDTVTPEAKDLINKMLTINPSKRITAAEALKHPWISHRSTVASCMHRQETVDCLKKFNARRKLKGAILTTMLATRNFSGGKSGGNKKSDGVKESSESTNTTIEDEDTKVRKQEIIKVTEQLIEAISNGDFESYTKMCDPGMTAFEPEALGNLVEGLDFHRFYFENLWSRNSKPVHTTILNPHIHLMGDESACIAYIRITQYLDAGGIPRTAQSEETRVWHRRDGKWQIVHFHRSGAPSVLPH
Method: (§2) JAK activity assays using isolated kinase domains in the presence of 0.1 mM ATP and trFRET kinome profiling were conducted as described previously (17).

TAOK2 = TAOK2 (Homo sapiens, UniProt Q9UL54); assay: trFRET binding kinome profiling
Method: as §2

Flt1 = Flt1 (Homo sapiens, UniProt P17948); assay: trFRET binding kinome profiling
Chain of Flt1 (P17948 27-1338, species assumed): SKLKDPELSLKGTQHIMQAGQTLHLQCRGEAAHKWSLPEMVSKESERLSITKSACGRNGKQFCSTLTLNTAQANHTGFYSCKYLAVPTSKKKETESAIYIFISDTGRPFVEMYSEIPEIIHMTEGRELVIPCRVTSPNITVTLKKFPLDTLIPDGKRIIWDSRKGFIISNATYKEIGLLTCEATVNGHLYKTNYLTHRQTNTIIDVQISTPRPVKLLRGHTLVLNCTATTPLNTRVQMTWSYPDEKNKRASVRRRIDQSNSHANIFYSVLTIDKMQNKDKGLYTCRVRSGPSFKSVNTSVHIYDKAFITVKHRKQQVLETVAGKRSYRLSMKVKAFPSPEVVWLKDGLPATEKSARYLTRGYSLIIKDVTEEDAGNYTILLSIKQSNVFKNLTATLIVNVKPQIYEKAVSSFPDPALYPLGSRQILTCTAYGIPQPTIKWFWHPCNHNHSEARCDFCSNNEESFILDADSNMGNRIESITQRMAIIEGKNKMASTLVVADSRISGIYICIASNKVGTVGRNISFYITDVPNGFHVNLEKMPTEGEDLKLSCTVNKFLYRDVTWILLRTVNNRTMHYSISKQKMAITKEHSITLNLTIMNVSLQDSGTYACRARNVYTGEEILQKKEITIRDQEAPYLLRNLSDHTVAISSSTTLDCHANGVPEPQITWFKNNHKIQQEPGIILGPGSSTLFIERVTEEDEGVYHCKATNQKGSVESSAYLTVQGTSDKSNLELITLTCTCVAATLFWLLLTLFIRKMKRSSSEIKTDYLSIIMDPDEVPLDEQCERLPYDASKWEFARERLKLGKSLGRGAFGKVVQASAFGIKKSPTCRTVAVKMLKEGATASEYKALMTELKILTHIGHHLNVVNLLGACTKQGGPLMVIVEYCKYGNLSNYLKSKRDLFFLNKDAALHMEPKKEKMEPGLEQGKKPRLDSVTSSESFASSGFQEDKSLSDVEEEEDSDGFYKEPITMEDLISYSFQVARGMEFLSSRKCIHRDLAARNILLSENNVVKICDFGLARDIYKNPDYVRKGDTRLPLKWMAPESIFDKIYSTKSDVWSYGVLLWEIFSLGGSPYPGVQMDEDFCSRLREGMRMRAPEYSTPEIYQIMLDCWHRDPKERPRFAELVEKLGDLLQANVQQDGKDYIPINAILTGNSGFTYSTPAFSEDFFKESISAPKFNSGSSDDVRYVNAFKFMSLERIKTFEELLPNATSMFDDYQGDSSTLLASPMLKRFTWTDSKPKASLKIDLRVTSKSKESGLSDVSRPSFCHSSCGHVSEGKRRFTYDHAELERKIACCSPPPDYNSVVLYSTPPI
Method: as §2

TTK = TTK (Homo sapiens, UniProt P33981); assay: trFRET binding kinome profiling
Method: as §2

FAK = FAK (Homo sapiens, UniProt Q05397); assay: trFRET binding kinome profiling
Method: as §2

PDGFRA V561D = PDGFRA V561D (Homo sapiens, UniProt P16234, V561D); assay: trFRET binding kinome profiling
Method: as §2

DDR1 = DDR1 (Homo sapiens, UniProt Q08345); assay: trFRET binding kinome profiling
Method: as §2

CDK8/Cyclin C = CDK8/Cyclin C (Homo sapiens, UniProt P49336); assay: trFRET binding kinome profiling
Chain of CDK8/Cyclin C (P49336 whole entry, species assumed): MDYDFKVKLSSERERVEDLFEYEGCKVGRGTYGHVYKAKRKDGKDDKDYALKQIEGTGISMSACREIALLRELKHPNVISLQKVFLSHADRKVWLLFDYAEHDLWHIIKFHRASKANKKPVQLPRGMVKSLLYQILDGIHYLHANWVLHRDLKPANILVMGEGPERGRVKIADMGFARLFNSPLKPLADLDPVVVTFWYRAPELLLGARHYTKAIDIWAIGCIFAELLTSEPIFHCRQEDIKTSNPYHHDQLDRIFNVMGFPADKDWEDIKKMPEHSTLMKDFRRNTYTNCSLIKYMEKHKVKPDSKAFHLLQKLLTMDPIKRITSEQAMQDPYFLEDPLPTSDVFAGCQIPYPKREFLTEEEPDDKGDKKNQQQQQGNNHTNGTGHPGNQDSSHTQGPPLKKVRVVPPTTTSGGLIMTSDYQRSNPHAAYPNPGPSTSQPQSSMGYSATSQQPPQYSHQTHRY
Chain of CDK8/Cyclin C (P24863 whole entry partner, species assumed): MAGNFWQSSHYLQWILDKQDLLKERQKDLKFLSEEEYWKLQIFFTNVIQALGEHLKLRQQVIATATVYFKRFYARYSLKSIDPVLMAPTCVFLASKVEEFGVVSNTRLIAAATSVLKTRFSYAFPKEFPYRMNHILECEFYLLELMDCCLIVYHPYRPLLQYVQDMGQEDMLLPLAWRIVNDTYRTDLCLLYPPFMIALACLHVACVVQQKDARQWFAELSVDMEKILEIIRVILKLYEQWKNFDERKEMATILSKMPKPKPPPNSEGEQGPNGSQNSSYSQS
Method: as §2

STK16 = STK16 (Homo sapiens, UniProt O75716); assay: trFRET binding kinome profiling
Method: as §2

MAP4K4 = MAP4K4 (Homo sapiens, UniProt O95819); assay: trFRET binding kinome profiling
Method: as §2

Akt1 = Akt1 (Homo sapiens, UniProt P31749); assay: trFRET binding kinome profiling
Chain of Akt1 (P31749 whole entry, species assumed): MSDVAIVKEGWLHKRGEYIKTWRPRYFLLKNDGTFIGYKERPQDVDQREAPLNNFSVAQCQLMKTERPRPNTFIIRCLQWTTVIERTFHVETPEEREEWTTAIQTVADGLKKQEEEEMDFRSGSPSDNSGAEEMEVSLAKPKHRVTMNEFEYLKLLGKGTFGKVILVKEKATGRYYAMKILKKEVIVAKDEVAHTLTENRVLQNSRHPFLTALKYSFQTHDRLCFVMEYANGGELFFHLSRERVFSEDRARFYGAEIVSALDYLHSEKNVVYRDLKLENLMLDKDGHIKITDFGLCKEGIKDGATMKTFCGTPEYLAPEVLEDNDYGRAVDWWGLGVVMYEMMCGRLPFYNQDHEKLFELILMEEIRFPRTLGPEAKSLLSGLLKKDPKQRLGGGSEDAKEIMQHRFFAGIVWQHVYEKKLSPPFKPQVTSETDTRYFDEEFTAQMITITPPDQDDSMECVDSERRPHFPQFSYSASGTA
Method: as §2

Gsk3b = Gsk3b (Homo sapiens, UniProt P49841); assay: trFRET binding kinome profiling
Method: as §2

BRAF = BRAF (Homo sapiens, UniProt P15056); assay: trFRET binding kinome profiling
Method: as §2

Syk = Syk (Homo sapiens, UniProt P43405); assay: trFRET binding kinome profiling
Method: as §2

Pim1 = Pim1 (Homo sapiens, UniProt P11309); assay: trFRET binding kinome profiling
Method: as §2

JNK1 = JNK1 (Homo sapiens, UniProt P45983); assay: trFRET binding kinome profiling
Method: as §2

STK33 = STK33 (Homo sapiens, UniProt Q9BYT3); assay: trFRET binding kinome profiling
Method: as §2

SGK1 = SGK1 (Homo sapiens, UniProt O00141); assay: trFRET binding kinome profiling
Method: as §2

Pim2 = Pim2 (Homo sapiens, UniProt Q9P1W9); assay: trFRET binding kinome profiling
Method: as §2

TNK2 = TNK2 (Homo sapiens, UniProt Q07912); assay: trFRET binding kinome profiling
Method: as §2

RET = RET (Homo sapiens, UniProt P07949); assay: trFRET binding kinome profiling
Method: as §2

LCK = LCK (Homo sapiens, UniProt P06239); assay: trFRET binding kinome profiling
Method: as §2

Nek2 = Nek2 (Homo sapiens, UniProt P51955); assay: trFRET binding kinome profiling
Method: as §2

GRK5 = GRK5 (Homo sapiens, UniProt P34947); assay: trFRET binding kinome profiling
Method: as §2

ACVR1 = ACVR1 (Homo sapiens, UniProt Q04771); assay: trFRET binding kinome profiling
Method: as §2

ALK = ALK (Homo sapiens, UniProt Q9UM73); assay: trFRET binding kinome profiling
Method: as §2

cMET = cMET (Homo sapiens, UniProt P08581); assay: trFRET binding kinome profiling
Method: as §2

CSF1R = CSF1R (Homo sapiens, UniProt P07333); assay: trFRET binding kinome profiling
Chain of CSF1R (P07333 20-972, species assumed): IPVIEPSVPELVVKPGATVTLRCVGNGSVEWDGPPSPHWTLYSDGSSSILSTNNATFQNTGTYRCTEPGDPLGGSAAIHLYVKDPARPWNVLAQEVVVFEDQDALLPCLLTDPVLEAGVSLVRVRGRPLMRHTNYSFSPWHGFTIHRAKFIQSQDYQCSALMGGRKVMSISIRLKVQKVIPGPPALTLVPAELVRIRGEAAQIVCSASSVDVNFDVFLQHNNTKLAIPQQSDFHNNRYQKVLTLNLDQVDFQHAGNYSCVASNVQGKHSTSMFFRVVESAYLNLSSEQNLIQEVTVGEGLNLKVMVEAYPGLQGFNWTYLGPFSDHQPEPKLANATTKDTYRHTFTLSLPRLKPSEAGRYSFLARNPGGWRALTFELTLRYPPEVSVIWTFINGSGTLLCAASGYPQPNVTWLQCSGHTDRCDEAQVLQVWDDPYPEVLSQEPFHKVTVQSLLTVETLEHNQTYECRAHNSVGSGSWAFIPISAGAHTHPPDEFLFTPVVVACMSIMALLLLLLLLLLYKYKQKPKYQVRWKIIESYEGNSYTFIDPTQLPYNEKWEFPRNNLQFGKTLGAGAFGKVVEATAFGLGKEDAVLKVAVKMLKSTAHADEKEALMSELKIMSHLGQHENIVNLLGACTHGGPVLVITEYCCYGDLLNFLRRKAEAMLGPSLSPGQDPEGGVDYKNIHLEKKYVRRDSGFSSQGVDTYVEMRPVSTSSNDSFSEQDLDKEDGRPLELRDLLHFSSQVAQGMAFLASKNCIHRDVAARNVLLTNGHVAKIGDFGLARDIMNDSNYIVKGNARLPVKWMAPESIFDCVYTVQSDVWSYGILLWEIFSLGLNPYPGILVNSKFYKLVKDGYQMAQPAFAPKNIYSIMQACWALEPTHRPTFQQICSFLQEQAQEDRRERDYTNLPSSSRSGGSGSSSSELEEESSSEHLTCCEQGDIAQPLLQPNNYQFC
Method: as §2

InsR = InsR (Homo sapiens, UniProt P06213); assay: trFRET binding kinome profiling
Method: as §2

MAP3K10 = MAP3K10 (Homo sapiens, UniProt Q02779); assay: trFRET binding kinome profiling
Chain of MAP3K10 (Q02779 whole entry, species assumed): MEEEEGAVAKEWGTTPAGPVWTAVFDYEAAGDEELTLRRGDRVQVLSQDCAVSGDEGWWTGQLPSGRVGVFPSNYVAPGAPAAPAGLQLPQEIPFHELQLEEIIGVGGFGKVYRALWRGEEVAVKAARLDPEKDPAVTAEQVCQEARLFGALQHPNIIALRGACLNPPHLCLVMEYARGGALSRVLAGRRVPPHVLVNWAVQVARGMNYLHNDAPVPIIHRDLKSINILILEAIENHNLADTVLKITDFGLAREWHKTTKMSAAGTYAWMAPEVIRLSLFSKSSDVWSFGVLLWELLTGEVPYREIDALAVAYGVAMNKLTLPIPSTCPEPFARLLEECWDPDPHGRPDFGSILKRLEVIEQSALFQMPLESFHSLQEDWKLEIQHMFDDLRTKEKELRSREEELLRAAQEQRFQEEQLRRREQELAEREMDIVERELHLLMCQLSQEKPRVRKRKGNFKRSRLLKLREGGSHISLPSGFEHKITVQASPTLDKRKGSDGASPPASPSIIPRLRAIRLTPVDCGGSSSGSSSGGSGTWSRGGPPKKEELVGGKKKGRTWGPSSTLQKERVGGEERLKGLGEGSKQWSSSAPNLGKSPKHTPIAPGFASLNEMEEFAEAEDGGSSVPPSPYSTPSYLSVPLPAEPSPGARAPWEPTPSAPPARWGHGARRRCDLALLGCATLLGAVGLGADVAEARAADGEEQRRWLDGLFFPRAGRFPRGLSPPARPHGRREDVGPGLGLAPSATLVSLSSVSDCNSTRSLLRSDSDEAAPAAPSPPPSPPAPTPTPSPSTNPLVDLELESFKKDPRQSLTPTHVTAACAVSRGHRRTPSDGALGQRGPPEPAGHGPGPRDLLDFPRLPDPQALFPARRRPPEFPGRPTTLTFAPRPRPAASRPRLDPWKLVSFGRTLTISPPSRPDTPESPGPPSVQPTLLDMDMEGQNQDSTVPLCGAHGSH
Method: as §2

PKA = PKA (Homo sapiens, UniProt P17612); assay: trFRET binding kinome profiling
Method: as §2

CDK2 = CDK2 (Homo sapiens, UniProt P24941); assay: trFRET binding kinome profiling
Method: as §2

[3] = test system: IL-2 induced STAT5 phosphorylation; assay: IL-2 induced STAT5 phosphorylation in activated T-cells; type: cell-based; conditions: T-blasts, JAK 1/3, read-out: Human IC50, IL-2 pSTAT5
Method: as §1

Compound: CC[C@@H]1CN(C(=O)NCC(F)(F)F)C[C@@H]1c1cnc2cnc3[nH]ccc3n12 [upadacitinib, (3S,4R)-3-ethyl-4-(3H-imidazo [1,2-a]pyrrolo [2,3-e]pyrazin-8-yl)-N-(2,2,2-trifluoroethyl) pyrrolidine-1-carboxamide]
- IC50 [1]: 0.0016 µM
- IC50 [2]: 0.207 µM
- Mechanism of JAK1 inhibition (JAK1): ATP competitive inhibitor
- IC50 (CAMK2A): > 10 µM
- IC50 (TAOK2): > 10 µM
- IC50 (Flt1): > 10 µM
- IC50 (TTK): > 10 µM
- IC50 (FAK): > 10 µM
- IC50 (PDGFRA V561D): > 10 µM
- IC50 (DDR1): > 10 µM
- IC50 (CDK8/Cyclin C): > 10 µM
- IC50 (STK16): 9.7 µM
- IC50 (MAP4K4): > 10 µM
- IC50 (Akt1): > 10 µM
- IC50 (Gsk3b): > 10 µM
- IC50 (BRAF): > 10 µM
- IC50 (Syk): > 10 µM
- IC50 (Pim1): > 10 µM
- IC50 (JNK1): > 10 µM
- IC50 (STK33): > 10 µM
- IC50 (SGK1): > 10 µM
- IC50 (Pim2): > 10 µM
- IC50 (TNK2): 5.1 µM
- IC50 (RET): 2.4 µM
- IC50 (LCK): > 10 µM
- IC50 (Nek2): > 10 µM
- IC50 (GRK5): > 7.9 µM
- IC50 (ACVR1): > 10 µM
- IC50 (ALK): > 5.5 µM
- IC50 (cMET): > 10 µM
- IC50 (CSF1R): > 10 µM
- IC50 (InsR): > 10 µM
- IC50 (MAP3K10): > 10 µM
- IC50 (PKA): > 10 µM
- IC50 (CDK2): > 10 µM
- IC50 ([3]; Homo sapiens, T-cell): 0.013 µM
- IC50 [3]: 0.01 µM
